Data reported in ChEMBL document CHEMBL4330132, “5-Keto-3-cyano-2,4-diaminothiophenes as selective maternal embryonic leucine zipper kinase inhibitors” (Bioorg Med Chem Lett, 2019).
Converted amounts (≈) assume the structure as drawn.

Biological target: T1, Maternal embryonic leucine zipper kinase (Homo sapiens, UniProt Q14680)
Test: Inhibition of recombinant human MELK expressed in Escherichia coli using ZIPtide as substrate measured after 0.5 hrs by ADP-Glo assay
Details: not given
Target sequence in this assay (Q14680 whole entry): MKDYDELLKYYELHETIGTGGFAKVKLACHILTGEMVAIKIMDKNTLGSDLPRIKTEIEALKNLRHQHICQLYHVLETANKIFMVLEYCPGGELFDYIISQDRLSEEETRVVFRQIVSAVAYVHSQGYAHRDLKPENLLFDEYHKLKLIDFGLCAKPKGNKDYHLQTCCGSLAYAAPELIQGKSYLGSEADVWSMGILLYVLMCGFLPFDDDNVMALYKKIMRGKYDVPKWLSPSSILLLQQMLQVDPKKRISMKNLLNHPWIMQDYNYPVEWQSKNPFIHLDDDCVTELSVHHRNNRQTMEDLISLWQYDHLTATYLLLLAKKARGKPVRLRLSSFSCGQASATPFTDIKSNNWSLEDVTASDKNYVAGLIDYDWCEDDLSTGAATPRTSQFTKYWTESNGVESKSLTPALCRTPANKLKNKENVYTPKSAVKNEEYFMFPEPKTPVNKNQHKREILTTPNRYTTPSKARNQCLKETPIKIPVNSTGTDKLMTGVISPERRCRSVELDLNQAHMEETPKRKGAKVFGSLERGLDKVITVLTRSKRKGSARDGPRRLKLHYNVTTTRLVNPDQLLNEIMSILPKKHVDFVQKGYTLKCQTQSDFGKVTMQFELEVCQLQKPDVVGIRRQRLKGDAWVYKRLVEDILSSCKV

SMILES	IC50 [nM]
CC(C)Nc1sc(C(=O)c2ccc(Cl)s2)cc1C#N	> 5000
CC(C)Nc1sc(C(=O)c2cccc(C#N)c2)c(N)c1C#N	> 5000
CC(C)Nc1sc(C(=O)c2ccc3c(c2)OCO3)c(N)c1C#N	1120
CC(C)Nc1nc(N)c(C(=O)c2ccc(Cl)s2)s1	> 5000
N#Cc1c(NCCN2CCNCC2)sc(C(=O)c2ccc(Br)s2)c1N	98
CC(C)Nc1sc(C(=O)c2ccc(Br)s2)c(N)c1C#N	122
Cc1ccc(C(=O)c2sc(NC(C)C)c(C#N)c2N)s1	494
CCNc1sc(C(=O)c2ccc(Cl)s2)c(N)c1C#N	222
CC(C)Nc1sc(C(=O)c2ccn[nH]2)c(N)c1C#N	1700
COc1ccc(C(=O)c2sc3nc(C)ccc3c2N)cc1OC	> 5000
C=CCNc1sc(C(=O)C(C)(C)C)c(N)c1C#N	> 5000
CC(C)Nc1sc(C(=O)c2ccc(C#N)cc2)c(N)c1C#N	> 5000
CCNc1sc(C(=O)c2cccs2)c(N)c1C#N	1190
COc1ccc(C(=O)c2sc(NC(C)C)c(C#N)c2N)cc1OC	1770
N#Cc1ccccc1Nc1sc(C(=O)c2ccc(Br)s2)c(N)c1C#N	> 5000
CC(C)Nc1sc(C(=O)c2ccc(Cl)s2)c(N)c1C(N)=O	388
CC(=O)c1sc(NC(C)C)c(C#N)c1N	> 5000
CC(C)Nc1sc(C(=O)c2ccc(-c3ccc(O)cc3)s2)c(N)c1C#N	241

SMILES	IC50 [nM]
N#Cc1c(NCCCN)sc(C(=O)c2ccc(Br)s2)c1N	141
CC(C)Nc1sc(C(=O)c2cc(Br)cs2)c(N)c1C#N	599
N#Cc1c(NCCO)sc(C(=O)c2ccc(Br)s2)c1N	313
C=CCNc1sc(C(=O)c2ccc(Cl)s2)c(N)c1C#N	638
N#Cc1c(NCc2ccccc2)sc(C(=O)c2ccc(Cl)s2)c1N	> 5000
COc1ccc(C(=O)c2sc(NC(C)C)c(C#N)c2N)cc1	4130
CC(C)N(C)c1sc(C(=O)c2ccc(Cl)s2)c(N)c1C#N	1420
CC(C)Nc1sc(C(=O)c2ccc(I)s2)c(N)c1C#N	112
CC(C)Nc1sc(C(=O)c2cc(Cl)cs2)c(N)c1C#N	575
CC(C)Nc1sc(C(=O)c2ccco2)c(N)c1C#N	1350
CC(C)Nc1sc(C(=O)c2ccncc2)c(N)c1C#N	> 5000
N#Cc1c(Nc2ccccc2F)sc(C(=O)c2ccc(Cl)s2)c1N	707
Cc1ccc(C(=O)c2sc3nc(C)ccc3c2N)cc1	> 5000
CC(C)Nc1sc(C(=O)c2ccc(-c3cccc(O)c3)s2)c(N)c1C#N	350
CC(C)Nc1sc(C(=O)c2ccc(-c3ccncc3)s2)c(N)c1C#N	269
N#Cc1c(NCC(N)=O)sc(C(=O)c2ccc(Br)s2)c1N	540
CC(C)Nc1sc(C(=O)c2cccnc2)c(N)c1C#N	> 5000

Biological target: T1, Maternal embryonic leucine zipper kinase
Test: Inhibition of recombinant human MELK expressed in Escherichia coli at 5 uM using ZIPtide as substrate measured after 0.5 hrs by ADP-Glo assay relative to control
Details: not given
Target sequence in this assay (Q14680 whole entry, looked up): as the sequence (Q14680 whole entry) above

SMILES	inhibition [%]
CC(C)Nc1nc(N)c(C(=O)c2ccc(Cl)s2)s1	46
CC(C)Nc1sc(C(=O)c2ccccc2)c(N)c1C#N	47
Cc1ccc(C(=O)c2sc(NC(C)C)c(C#N)c2N)cc1	49

Tested on: not listed separately
Test: Lipophilicity, log P of the compound
Assay type: physicochemical
Details: octanol/water

SMILES	logP
N#Cc1c(NCCN2CCNCC2)sc(C(=O)c2ccc(Br)s2)c1N	3

Tested on: not listed separately
Test: Kinetic solubility of the compound in pH 7.4 phosphate buffer
Assay type: physicochemical
Details: read-out: Kinetic_solubility

SMILES	solubility kinetic [µg/mL]
N#Cc1c(NCCN2CCNCC2)sc(C(=O)c2ccc(Br)s2)c1N	189 (≈ 429 µM)

Tested on: not listed separately
Test: Stability in mouse liver microsomes assessed as parent compound remaining after 1 hr
Assay type: ADME, Microsome
Details: read-out: Stability

SMILES	remaining at 1 h [%]
N#Cc1c(NCCN2CCNCC2)sc(C(=O)c2ccc(Br)s2)c1N	81
